Data set [1] relates to VCB: PROTAC: SMARCA4^BD ternary complex. Nature of the data set: TR-FRET ternary complex affinity and cooperativity, SMARCA4. It counts as binding, human. To be noted: ratio TR-FRET EC50 / TR-FRET EC50 +VCB measured in the same run, SMARCA4BD.
In data set [2] the test system is PBRM1BD5. Kind of data set: TR-FRET ternary complex affinity and cooperativity, PBRM1. It counts as binding. As to conditions: ratio TR-FRET EC50 / TR-FRET EC50 +VCB measured in the same run, PBRM1BD5. (In general: Time-resolved FRET reads energy transfer from a long-lived donor to a nearby acceptor.)
Data set [3] addresses T1, PBRM1BD5 (Homo sapiens, UniProt P40337+Q86U86).
T1 construct: GST (TEV site) (N); His6 (TEV site) (N, cleaved yes); made in house; host or cells: PBRM1^BD5: Escherichia coli BL21(DE3)
The data set is described as above. Type of data set: binding. As to conditions: TR-FRET competition for PBRM1BD5, + VCB; mean ± SD; read-out: TR-FRET Ternary PBRM1BD EC50 (PROTAC + VCB).

A short description of data set [4]: Microsomal stability. Type of data set: in vitro ADME. As to conditions: for Mic. Stab. Human / Mic. Stab. Human QH: human liver microsomes; for Mic. Stab. Mouse / Mic. Stab. Mouse QH: mouse liver microsomes; for Mic. Stab. Rat / Mic. Stab. Rat QH: rat liver microsomes. As for the experimental part: […] Reactions were terminated by addition of acetonitrile and precipitates separated by centrifugation. Compound concentrations in supernatants were measured by HPLC-MS/MS and clearance was calculated from compound half-lives using the well-stirred liver model.

The target in data set [5] is VCB: PROTAC: SMARCA2^BD ternary complex (Homo sapiens, UniProt P40337+P51531). Nature of the data set: SPR ternary complex measurement, VCB immobilised, 10 µM SMARCA2^BD present. It counts as binding. Details: P51531-2, residues 1373-1493 with additional N-terminal SM residues; His6 (TEV site) (N, cleaved yes); GST (TEV site) (N, cleaved yes); made in house; host or cells: SMARCA2^BD: Escherichia coli BL21(DE3). As to conditions: for Kd: SPR; for alpha: cooperativity, SMARCA2, ratio of KD values measured in the same run. As for the experimental part: SPR data were acquired on Biacore 8K or T200 instruments (Cytiva). Target proteins were immobilised at 25 °C on CM5 chips by amine coupling (EDC/NHS, Cytiva) in HBS-P+ running buffer (pH 7.4), containing 2 mM TCEP. […] The reference surface was subsequently deactivated using 1 M ethanolamine. […] Biotinylated VCB was prepared as previously described[27]: in brief, the complex was mixed 1:1 with EZ-Link NHS–PEG4–biotin (Thermo Scientific) and incubated at room temperature for 1 h. Unreacted NHS-biotin was removed using a PD-10 desalting column (Cytiva) into 20 mM HEPES, pH 7.5, 150 mM sodium chloride and 1 mM DTT. The reference surface was generated by deactivating the EDC/NHS-treated surface with 1 M ethanolamine. All interaction experiments were done at 6 °C in running buffer (20 mM TRIS, pH 8.3, 150 mM potassium chloride, 2 mM magnesium chloride, 2 mM TCEP, 0.005% TWEEN 20, 1% dimethyl sulfoxide). For ternary complex measurements, a sensor chip surface with VCB immobilised was used (preparation as described above). Experiments were run in dual-inject mode with 10 µM SMARCA present during the injection and dissociation phase. Sensorgrams from reference surfaces and blank injections were subtracted from the raw data prior to data analysis using Biacore Insight software. Affinity and binding kinetic parameters were determined by global fitting using the 1:1 interaction model with a term for mass-transport included.
VCB: PROTAC: SMARCA2^BD ternary complex, sequence (P40337 54-213): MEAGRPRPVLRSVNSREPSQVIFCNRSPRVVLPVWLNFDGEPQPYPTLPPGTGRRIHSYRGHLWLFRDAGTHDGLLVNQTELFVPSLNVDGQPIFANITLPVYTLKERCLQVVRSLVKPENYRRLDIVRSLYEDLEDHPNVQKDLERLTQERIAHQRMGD
VCB: PROTAC: SMARCA2^BD ternary complex, sequence (Q15369 17-112 partner limits assumed): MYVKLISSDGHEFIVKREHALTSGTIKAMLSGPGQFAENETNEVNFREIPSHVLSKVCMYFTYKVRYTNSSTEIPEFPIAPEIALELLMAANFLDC
VCB: PROTAC: SMARCA2^BD ternary complex, sequence (Q15370 1-104 partner limits assumed): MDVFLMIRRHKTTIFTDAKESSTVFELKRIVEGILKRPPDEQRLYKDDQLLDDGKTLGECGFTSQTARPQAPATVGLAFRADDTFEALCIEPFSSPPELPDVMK
VCB: PROTAC: SMARCA2^BD ternary complex, sequence (P51531 1373-1493 isoform P51531-2): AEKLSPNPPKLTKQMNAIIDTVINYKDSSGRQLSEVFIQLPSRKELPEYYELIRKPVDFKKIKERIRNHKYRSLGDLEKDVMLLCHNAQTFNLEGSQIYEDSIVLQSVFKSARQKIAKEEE

A short description of data set [6]: Solubility testing. Type of data set: physicochemical. On the procedure: Dilution into a 1:1 mixture of acetonitrile and water was used as reference. After 24 h, the incubations were filtrated, and the filtrate was analyzed by LC-UV.
The mark [7] stands for this setting: ternary complex with SMARCA2BD, mean ± SD.

3 molecules from PMC9551036, “A selective and orally bioavailable VHL-recruiting PROTAC achieves SMARCA2 degradation in vivo” (Nature Communications, 2022) can be followed below.

The EC50 is the concentration giving half of the maximal effect. Broadly, the Kd is the concentration at which binding is half-saturated.

Values joined by “and” are separate entries in the source; they are usually repeats but may differ in a detail not shown here. Equal values may be shown once.

T1 sequence (Q86U86 645-766): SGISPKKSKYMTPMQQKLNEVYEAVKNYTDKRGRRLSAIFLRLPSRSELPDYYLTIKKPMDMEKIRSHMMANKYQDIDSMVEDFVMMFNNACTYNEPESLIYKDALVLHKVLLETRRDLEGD
T1 sequence (P40337 54-213): as the sequence (P40337 54-213) above
T1 sequence (Q15369 17-112 partner): as the sequence (Q15369 17-112 partner limits assumed) above
T1 sequence (Q15370 1-104 partner): as the sequence (Q15370 1-104 partner limits assumed) above

Turning to `Cc1ncsc1-c1ccc([C@H](COC(C)(C)CN2CCC(c3ccc4c(c3)n(C3CCCC3)c3nc(=O)c5c(Br)cccc5n43)CC2)NC(=O)[C@@H]2C[C@@H](O)CN2C(=O)[C@@H](NC(=O)C2(F)CC2)C(C)(C)C)cc1` [compound 28], the “cooperativity α (SMARCA4BD)” value in data set [1] is recorded as 3.2 ± 0.7. Besides, the “cooperativity α (PBRM1BD)” value in data set [2] stood at 6.9 ± 1.9. Further, the EC50 in data set [3] came out at 4 ± 2 nM. In data set [4], the “Mic. Stab. Human” value turned out to be 57 ± 4 % QH; the “Mic. Stab. Human QH” value was 51.200% and 55.600% and 59.900% and 60.900%; the “Mic. Stab. Mouse” value is given as below 24 % QH; the “Mic. Stab. Mouse QH” value was < 24.200% and 25.800%. Besides, in data set [4], the “Mic. Stab. Rat” value is on record as below 23 % QH; the “Mic. Stab. Rat QH” value is < 23.100% and 29.700%. Further, the Kd in data set [5] (setting [7]) is 120 ± 34 nM. In data set [5] (ternary, individual replicates), the dissociation constant (Kd) was 82.7 nM and 149 nM and 127 nM. In addition, the alpha in data set [5] is 0.5. In addition, the “Solubility pH 6.8” value in data set [6] is listed as <1.000 <1.000 <1.000 <1.000 <1.000 ug/mL.
Turning to `Cc1ncsc1-c1ccc([C@H](CC[C@@H](C)CCN2CCC(c3ccc4c(c3)n(C3CCCC3)c3nc(=O)c5c(Br)cccc5n43)CC2)NC(=O)[C@@H]2C[C@@H](O)CN2C(=O)[C@@H](NC(=O)C2(F)CC2)C(C)(C)C)cc1` [compound 29], the “cooperativity α (SMARCA4BD)” value in data set [1] is listed as 7.0 ± 1.3. The “cooperativity α (PBRM1BD)” value in data set [2] was 24.9 ± 2.4. In addition, the EC50 in data set [3] turned out to be 3 ± 1 nM. Besides, in data set [4], the “Mic. Stab. Human” value is on record as below 24 % QH, the “Mic. Stab. Human QH” value was <24.400 <24.400%, the “Mic. Stab. Mouse” value is below 24 % QH and the “Mic. Stab. Mouse QH” value is listed as <24.200 <24.200%. For the same molecule, in data set [4], the “Mic. Stab. Rat” value is below 23 % QH and the “Mic. Stab. Rat QH” value is recorded as <23.100 <23.100%. Moreover, in data set [5] (setting [7]), the equilibrium dissociation constant (Kd) is 20 ± 4 nM. The Kd in data set [5] (ternary, individual replicates) was 15.6 nM and 23 nM and 21.9 nM. Moreover, the alpha in data set [5] turned out to be 0.6. Further, in data set [6], the “Solubility pH 4.5” value was <1.000 <1.000 ug/mL and the “Solubility pH 6.8” value was <1.000 <1.000 ug/mL.
As for `Cc1ncsc1-c1ccc([C@H](CCC(C)(C)CCN2CCC(c3ccc4c(c3)n(C3CCCC3)c3nc(=O)c5c(Br)cccc5n43)CC2)NC(=O)[C@@H]2C[C@@H](O)CN2C(=O)[C@@H](NC(=O)C2(F)CC2)C(C)(C)C)cc1` [compound 30], in data set [1], the “cooperativity α (SMARCA4BD)” value was 4.3 ± 0.5. Besides, the “cooperativity α (PBRM1BD)” value in data set [2] was 22.4 ± 3.9. The 50% effective concentration (EC50) in data set [3] turned out to be 6 ± 2 nM. Further, in data set [4], the “Mic. Stab. Human” value is reported as below 24 % QH, the “Mic. Stab. Human QH” value is recorded as <24.400 <24.400%, the “Mic. Stab. Mouse” value is recorded as below 24 % QH and the “Mic. Stab. Mouse QH” value is given as below 24.200%. In data set [4], the “Mic. Stab. Rat” value is recorded as below 23 % QH and the “Mic. Stab. Rat QH” value is given as <23.100 <23.100%. For the same molecule, the Kd in data set [5] (setting [7]) amounted to 86 ± 22 nM. Moreover, the dissociation constant Kd in data set [5] (ternary, individual replicates) is 66.1 nM and 109 nM and 81.8 nM. Besides, the alpha in data set [5] worked out at 0.3. In addition, in data set [6], the “Solubility pH 4.5” value is listed as below 1.000 ug/mL and the “Solubility pH 6.8” value is given as below 1.000 ug/mL.
